Data reported in patent publication US6583180B2, “Glucocorticoid receptor modulators” (Abbott Laboratories, priority 2001, dated 2003).

molecular target: T1, Human glucocorticoid receptors (Homo sapiens, UniProt P04150); experiment: Radioligand filter binding assay, displacement of 3[H]-dexamethasone from hGR; conditions: read-out: GR Binding (% Inhibition at 1.7 μM)
T1 construct: made in house; host or cells: Sf9 insect cells, recombinant baculovirus (BAC-TO-BAC)
T1 sequence (P04150 1-777): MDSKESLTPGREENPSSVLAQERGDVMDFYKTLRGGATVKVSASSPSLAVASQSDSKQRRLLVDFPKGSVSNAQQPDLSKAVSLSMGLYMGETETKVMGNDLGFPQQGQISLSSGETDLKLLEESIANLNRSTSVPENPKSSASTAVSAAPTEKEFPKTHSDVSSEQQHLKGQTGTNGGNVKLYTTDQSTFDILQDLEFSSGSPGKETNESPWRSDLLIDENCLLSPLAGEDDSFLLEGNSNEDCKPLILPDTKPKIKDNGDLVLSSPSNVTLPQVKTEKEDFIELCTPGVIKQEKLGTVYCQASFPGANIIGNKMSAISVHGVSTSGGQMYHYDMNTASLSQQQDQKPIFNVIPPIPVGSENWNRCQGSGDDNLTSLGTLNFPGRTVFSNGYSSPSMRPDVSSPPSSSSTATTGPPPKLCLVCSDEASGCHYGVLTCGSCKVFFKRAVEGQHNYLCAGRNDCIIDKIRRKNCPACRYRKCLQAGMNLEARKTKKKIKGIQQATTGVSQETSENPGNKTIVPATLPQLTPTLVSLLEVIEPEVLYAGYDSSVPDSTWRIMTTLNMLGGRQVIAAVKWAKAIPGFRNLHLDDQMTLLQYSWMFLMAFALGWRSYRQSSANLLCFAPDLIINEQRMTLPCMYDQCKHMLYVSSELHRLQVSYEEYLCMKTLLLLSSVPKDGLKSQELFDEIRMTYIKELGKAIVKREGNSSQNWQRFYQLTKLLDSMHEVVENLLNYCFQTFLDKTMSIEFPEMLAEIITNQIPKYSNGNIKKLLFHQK
Outline: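 Recombinant hGR extract from baculovirus-infected Sf9 cells (final ~1 nM receptor) incubated with ³H-dexamethasone and test compound dilutions in duplicate, EDTA/phosphate pH 8 buffer with MTG, overnight (15-20 h) at +4° C. Bound label collected on PEI-treated GF/B filters and scintillation-counted; IC50 from four-parameter fit of corrected cpm.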

Row | inhibition at 1.7 µM [%] | Structure (SMILES)
1 | 90.6 | CCOC(=O)COc1cc(Oc2ccc(CN(Cc3ccc(F)cc3F)c3cccc(NS(C)(=O)=O)c3C)cc2)ccc1Cl [Example 241, ethyl (2-chloro-5-{4-[((2,4-difluorobenzyl){2-methyl-3-[(methylsulfonyl)amino]phenyl}amino)methyl]phenoxy}phenoxy)acetate]
2 | 96.8 | Cc1c(NS(C)(=O)=O)cccc1N(Cc1ccc(Oc2ccc(Cl)c(OCCCC(=O)NCCCC(=O)O)c2)cc1)Cc1ccc(F)cc1F [Example 320, 4-((4-(2-chloro-5-(4-(((2,4-difluorobenzyl)(2-methyl-3-((methylsulfonyl)amino)phenyl)amino)methyl)phenoxy)phenoxy)butanoyl)amino)butanoic acid]
3 | 89.2 | Cc1c(NS(C)(=O)=O)cccc1N(Cc1ccccc1)Cc1ccc(Oc2ccc(OCC(=O)N[C@@H](CC(N)=O)C(=O)O)cc2)cc1 [Example 276, N˜2˜-[(4-{4-[(benzyl{2-methyl-3-[(methylsulfonyl)amino]phenyl}amino)methyl]phenoxy}phenoxy)acetyl]-L-asparagine]
4 | 90.4 | CCOC(=O)CCNC(=O)c1ccc(Oc2ccc(CN(Cc3ccc(F)cc3F)c3cccc(NS(C)(=O)=O)c3C)cc2)cc1 [Example 68, ethyl N-(4-{4-[((2,4-difluorobenzyl){2-methyl-3-[(methylsulfonyl)amino]phenyl}amino)methyl]phenoxy}benzoyl)-beta-alaninate]
5 | 72.5 | Cc1c(NS(C)(=O)=O)cccc1N(Cc1ccccc1Br)C(C#N)c1ccccc1 (stereo not drawn) [Example 37, N-(3-{(2-bromobenzyl)[cyano(phenyl)methyl]amino}-2-methylphenyl)methanesulfonamide]
6 | 92.8 | Cc1c(NS(C)(=O)=O)cccc1N(Cc1ccccc1)Cc1ccc(Oc2ccc(OCCCC(=O)N(C)CC(=O)O)cc2)cc1 [Example 254, N-[4-(4-{4-[(benzyl{2-methyl-3-[(methylsulfonyl)amino]phenyl}amino)methyl]phenoxy}phenoxy)butanoyl]-N-methylglycine]
7 | 89.5 | Cc1c(NS(C)(=O)=O)cccc1N(Cc1ccccc1)Cc1ccc(Oc2cccc(OCCCC(=O)N3CCC(C(=O)O)CC3)c2)cc1 [Example 280, 1-[4-(3-{4-[(benzyl{2-methyl-3-[(methylsulfonyl)amino]phenyl}amino)methyl]phenoxy}phenoxy)butanoyl]piperidine-4-carboxylic acid]
8 | 91.7 | Cc1c(NS(C)(=O)=O)cccc1N(Cc1ccccc1)Cc1ccc(Oc2ccc(OCCCCC(=O)NCCCC(=O)O)cc2)cc1 [Example 263, 4-{[5-(4-{4-[(benzyl{2-methyl-3-[(methylsulfonyl)amino]phenyl}amino)methyl]phenoxy}phenoxy)pentanoyl]amino}butanoic acid]
9 | 97.2 | Cc1c(NS(C)(=O)=O)cccc1N(Cc1ccc(Oc2ccc(CCCC(=O)O)cc2)cc1)Cc1ccc(F)cc1F [Example 74, 4-(4-{4-[((2,4-difluorobenzyl){2-methyl-3-[(methylsulfonyl)amino]phenyl}amino)methyl]phenoxy}phenyl)butanoic acid]
10 | 89.1 | Cc1c(NS(C)(=O)=O)cccc1N(Cc1ccccc1)Cc1ccc(Oc2cccc(OCc3cccnc3)c2)cc1 [Example 290, N-[3-(benzyl{4-[3-(pyridin-3-ylmethoxy)phenoxy]benzyl}amino)-2-methylphenyl]methanesulfonamide]
11 | 91.3 | Cc1c(NS(C)(=O)=O)cccc1N(Cc1ccccc1)Cc1ccc(Oc2ccc(OCCCC(=O)N[C@@H](CCC(N)=O)C(=O)O)cc2)cc1 [Example 260, N˜2˜-[4-(4-{4-[(benzyl{2-methyl-3-[(methylsulfonyl)amino]phenyl}amino)methyl]phenoxy}phenoxy)butanoyl]-L-glutamine]
12 | 91.6 | Cc1c(NS(C)(=O)=O)cccc1N(Cc1ccccc1)Cc1ccc(Oc2ccc(OCCCC(=O)N[C@@H](CO)C(=O)O)cc2)cc1 [Example 258, N-[4-(4-{4-[(benzyl{2-methyl-3-[(methylsulfonyl)amino]phenyl}amino)methyl]phenoxy}phenoxy)butanoyl]-L-serine]
